Laboratory results reported in US20080096208A1, “BIOMARKERS FOR ASSESSING RESPONSE TO C-MET TREATMENT” (priority 2006, published 2008).

Columns and labels:
[1] = tested on: PC-3 cells; assay: Micro array analysis of PC-3 cells stimulated by HGF; type: cell-based
Excerpt: In order to identify biomarkers for the HGF response and potential inhibition of this response by small molecule HGF receptor (c-met) inhibitors, a micro array analysis of PC-3 cells stimulated by HGF over a time course of 1 hr to 2 days was used. TAQMAN was employed to examine mRNA levels of VEGF, CD44, Fibronectin, and MMP-1, each of which has been shown by others to be induced by HGF. Briefly, RNA is isolated by lysis of cultured cells or homogenization of tumor tissue in a guanidine solution, Trireagent from Molecular Research Center, Inc. The RNA is purified by a Qiagen column methodology under conditions recommended by the manufacturer and DNAse treated. Specific levels of mRNAs for the indicated genes are determined by Real-Time PCR, Taqman analysis using probes and primers specific for the genes examined and purchased from Applied Biosystems and the SDS2.1 quantitation software. Quantitation is performed by comparison of the cycle number where the sample crosses a threshold value vs a standard curve made of a pool of the RNA samples. Normalization is performed by comparing the amount of specific mRNA to that of 18S RNA or GAPDH mRNA. […] This response was then evaluated upon administration of the c-met inhibitor, 3DP-669366. […] This analysis was then evaluated upon administration of the acylhydrazone series of c-met inhibitors, JNJ-28823184 and JNJ-38429274. […]

[2] = tested on: PC-3 prostate carcinoma cells; assay: Taqman real-time PCR of marker mRNA levels in HGF-stimulated PC-3 cells; type: cell-based
Excerpt: In order to identify biomarkers for the HGF response and potential inhibition of this response by small molecule HGF receptor (c-met) inhibitors, a micro array analysis of PC-3 cells stimulated by HGF over a time course of 1 hr to 2 days was used. TAQMAN was employed to examine mRNA levels of VEGF, CD44, Fibronectin, and MMP-1, each of which has been shown by others to be induced by HGF. Briefly, RNA is isolated by lysis of cultured cells or homogenization of tumor tissue in a guanidine solution, Trireagent from Molecular Research Center, Inc. The RNA is purified by a Qiagen column methodology under conditions recommended by the manufacturer and DNAse treated. Specific levels of mRNAs for the indicated genes are determined by Real-Time PCR, Taqman analysis using probes and primers specific for the genes examined and purchased from Applied Biosystems and the SDS2.1 quantitation software. Quantitation is performed by comparison of the cycle number where the sample crosses a threshold value vs a standard curve made of a pool of the RNA samples. Normalization is performed by comparing the amount of specific mRNA to that of 18S RNA or GAPDH mRNA. […] This response was then evaluated upon administration of the c-met inhibitor, 3DP-669366. […] The kinetics of the induction and the amplitude of the mRNA levels differ between the cell lines examined. The micro-array analysis identified LDL Receptor 1 (LDL-R1) as another protein that is induced by HGF and whose level of expression is diminished by treatment of cells with a HGF receptor inhibitor. This analysis was then evaluated upon administration of the acylhydrazone series of c-met inhibitors, JNJ-28823184 and JNJ-38429274. In in vivo tumor xenografts, the biomarkers identified by examination of cell culture responses to c-met inhibitors are also modulated in the in vivo setting. In a U87MG tumor xenograft in nude mice, a decrease in the mRNA levels of CD44, VEGF, LDLR1, and Osteopontin was observed.

[3] = between 8 and 48 hours following HGF addition, p<0.01

## HGF: hepatocyte growth factor (also known as scatter factor), ligand of the c-met receptor
[1]
  induction of LDL Receptor 1 (LDL-R1) by HGF: induced
[2]
  induction of Fibronectin mRNA by HGF: did not show a statistically significant induction
[2]; between 8 and 48 hours following HGF addition, p<0.001
  induction of VEGF mRNA by HGF: statistically significant induction
[2]; [3]
  induction of CD44 mRNA by HGF: statistically significant induction
  induction of MMP-1 mRNA by HGF: statistically significant induction
